This is an account of results in patent publication US8709803B2, “Cell transport system comprising a homogeneous mixture of agarose and agarase” (Histocell, S.L., priority 2008, dated 2014).

Experiment [1] relates to SK-N-MC cells. Put plainly: Proliferation assay with MTT on plates treated with laminin (FIG. 8a). The format is cell-based, human. Conditions: plate treated with laminin vs standard 24-well plate. On the procedure: (§1) As a result, SK-N-MC cells were cultured in standard 24-well plates and in 24-well plates previously treated with laminin (Laminin 24-well Multiwell plates, BD) at a cell density of 300,000 cells per well and 1 ml of specific medium consisting of MEM medium supplemented with 2 mM L-glutamine, 1 mM sodium pyruvate, 0.1 mM non-essential amino acids, […] of gentamicin and 1% antibiotic at 37° C. and 5% CO2.
(§2) The day after seeding the SK-N-MC cells in the standard 24-well plates and in 24-well plates treated with laminin, transport conditions are simulated according to the specifications described in the previous example.
Once the time necessary for the cells to recover from transport has elapsed, the proliferation rate of both cultures is determined by means of measuring cell proliferation at times 24 and 48 h using the MTT test described in the previous example.

Experiment [2] concerns SK-N-MC cells. The experiment in a line: Verification of morphology and cell density by microscopy on plates treated with laminin (FIG. 8b). The format is cell-based, human. Conditions: plates with laminin vs normal plate, same number of starting cells. On the procedure:
as §1, §2
In turn, the analysis of the cell morphology of the cultures of SK-N-MC in normal 24-well plates and 24-well plates treated with laminin shown in FIG. 8b proves that the number of cells in the culture in plates with laminin is greater than that of the culture in a normal plate despite the fact that the number of starting cells for both of them is the same, which reaffirms the results obtained from measuring the proliferation by means of MTT. The non-detection of the difference in the cell density by the proliferation assay by means of MTT can be due to the high cell confluence of both cultures.

With laminin, the “proliferation rate (MTT)” value in experiment [1] (after 24 hours in culture) is “an increase in the proliferation”; in experiment [1] (after 48 hours in culture) it was “equal”. The “number of cells in the culture (microscopy)” value in experiment [2] is on record as “greater”.
